According to PubChem BioAssay (NCI):
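Following 48 hours of exposure in 96-well plates, responses at five concentrations were used to interpolate endpoints linearly. Definition used: TGI = concentration required for complete inhibition of growth.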

Columns and labels:
Experiment in all cases: NCI tumour cell line growth inhibition, 48 h
786-0 renal = tested on: 786-0 renal
NCI-H226 lung = tested on: NCI-H226 lung
RPMI-8226 leukemia = tested on: RPMI-8226 leukemia
MDA-N = tested on: MDA-N
PC-3 prostate = tested on: PC-3 prostate
NCI-H522 lung = tested on: NCI-H522 lung
COLO 205 colon = tested on: COLO 205 colon
HOP-92 NSCLC = tested on: HOP-92 NSCLC
SK-MEL-28 melanoma = tested on: SK-MEL-28 melanoma
NCI/ADR-RES ovarian = tested on: NCI/ADR-RES ovarian
HCT-15 colon = tested on: HCT-15 colon
MCF7 breast = tested on: MCF7 breast
SF-539 CNS = tested on: SF-539 CNS
SN12C renal = tested on: SN12C renal
OVCAR-3 ovarian = tested on: OVCAR-3 ovarian
DU-145 prostate = tested on: DU-145 prostate
NCI-H23 lung = tested on: NCI-H23 lung
OVCAR-4 ovarian = tested on: OVCAR-4 ovarian
MALME-3M melanoma = tested on: MALME-3M melanoma
LOX IMVI melanoma = tested on: LOX IMVI melanoma
K-562 leukemia = tested on: K-562 leukemia
HCT-116 colon = tested on: HCT-116 colon
CAKI-1 renal = tested on: CAKI-1 renal
OVCAR-5 ovarian = tested on: OVCAR-5 ovarian
HCC-2998 colon = tested on: HCC-2998 colon
NCI-H460 lung = tested on: NCI-H460 lung
TK-10 renal = tested on: TK-10 renal
SNB-19 CNS = tested on: SNB-19 CNS
IGROV1 ovarian = tested on: IGROV1 ovarian
A498 renal = tested on: A498 renal
SK-MEL-2 melanoma = tested on: SK-MEL-2 melanoma
OVCAR-8 ovarian = tested on: OVCAR-8 ovarian
ACHN renal = tested on: ACHN renal
KM12 colon = tested on: KM12 colon
UACC-62 melanoma = tested on: UACC-62 melanoma
RXF 393 renal = tested on: RXF 393 renal
UO-31 renal = tested on: UO-31 renal
SF-268 CNS = tested on: SF-268 CNS
HT29 colon = tested on: HT29 colon
SR leukemia = tested on: SR leukemia
CCRF-CEM leukemia = tested on: CCRF-CEM leukemia
SW-620 colon = tested on: SW-620 colon
M14 melanoma = tested on: M14 melanoma
EKVX NSCLC = tested on: EKVX NSCLC
UACC-257 melanoma = tested on: UACC-257 melanoma
MOLT-4 leukemia = tested on: MOLT-4 leukemia
SK-MEL-5 melanoma = tested on: SK-MEL-5 melanoma
MDA-MB-435 = tested on: MDA-MB-435
T-47D breast = tested on: T-47D breast
HS 578T breast = tested on: HS 578T breast
A549 NSCLC = tested on: A549 NSCLC
SNB-75 CNS = tested on: SNB-75 CNS
BT-549 breast = tested on: BT-549 breast
MDA-MB-231 breast = tested on: MDA-MB-231 breast
HOP-62 NSCLC = tested on: HOP-62 NSCLC
SK-OV-3 ovarian = tested on: SK-OV-3 ovarian
SF-295 CNS = tested on: SF-295 CNS
U251 CNS = tested on: U251 CNS
HL-60(TB) leukemia = tested on: HL-60(TB) leukemia

Measured: TGI

COc1cc2c(cc1OCc1ccccc1)NC(=O)[C@@H]1CCCN1C2=O
> 100 µM: 786-0 renal | NCI-H226 lung | RPMI-8226 leukemia | MDA-N | PC-3 prostate | NCI-H522 lung | COLO 205 colon | HOP-92 NSCLC | SK-MEL-28 melanoma | NCI/ADR-RES ovarian | HCT-15 colon | MCF7 breast | SF-539 CNS | SN12C renal | OVCAR-3 ovarian | DU-145 prostate | NCI-H23 lung | OVCAR-4 ovarian | MALME-3M melanoma | LOX IMVI melanoma | K-562 leukemia | HCT-116 colon | CAKI-1 renal | OVCAR-5 ovarian | HCC-2998 colon | NCI-H460 lung | TK-10 renal | SNB-19 CNS | IGROV1 ovarian | A498 renal | SK-MEL-2 melanoma | OVCAR-8 ovarian | ACHN renal | KM12 colon | UACC-62 melanoma | RXF 393 renal | UO-31 renal | SF-268 CNS | HT29 colon | SR leukemia | CCRF-CEM leukemia | SW-620 colon | M14 melanoma | EKVX NSCLC | UACC-257 melanoma | MOLT-4 leukemia | SK-MEL-5 melanoma | MDA-MB-435 | T-47D breast | HS 578T breast | A549 NSCLC | SNB-75 CNS | BT-549 breast | MDA-MB-231 breast | HOP-62 NSCLC | SK-OV-3 ovarian | SF-295 CNS | U251 CNS

CCC1([N+](=O)[O-])CN(N=O)C1
> 100 µM: 786-0 renal | NCI-H226 lung | RPMI-8226 leukemia | MDA-N | PC-3 prostate | NCI-H522 lung | COLO 205 colon | HOP-92 NSCLC | SK-MEL-28 melanoma | NCI/ADR-RES ovarian | HCT-15 colon | MCF7 breast | SF-539 CNS | HL-60(TB) leukemia | SN12C renal | OVCAR-3 ovarian | DU-145 prostate | NCI-H23 lung | OVCAR-4 ovarian | MALME-3M melanoma | LOX IMVI melanoma | K-562 leukemia | HCT-116 colon | CAKI-1 renal | OVCAR-5 ovarian | NCI-H460 lung | TK-10 renal | SNB-19 CNS | IGROV1 ovarian | A498 renal | SK-MEL-2 melanoma | OVCAR-8 ovarian | ACHN renal | KM12 colon | UACC-62 melanoma | RXF 393 renal | UO-31 renal | SF-268 CNS | HT29 colon | SR leukemia | CCRF-CEM leukemia | SW-620 colon | M14 melanoma | EKVX NSCLC | UACC-257 melanoma | MOLT-4 leukemia | SK-MEL-5 melanoma | MDA-MB-435 | T-47D breast | HS 578T breast | A549 NSCLC | SNB-75 CNS | BT-549 breast | MDA-MB-231 breast | HOP-62 NSCLC | SK-OV-3 ovarian | SF-295 CNS | U251 CNS

CCn1ncc2c(=O)n3ncn(-c4ccc(Br)cc4)c3nc21
> 100 µM: 786-0 renal | NCI-H226 lung | RPMI-8226 leukemia | MDA-N | PC-3 prostate | NCI-H522 lung | COLO 205 colon | SK-MEL-28 melanoma | NCI/ADR-RES ovarian | HCT-15 colon | MCF7 breast | HL-60(TB) leukemia | SN12C renal | OVCAR-3 ovarian | DU-145 prostate | NCI-H23 lung | OVCAR-4 ovarian | MALME-3M melanoma | K-562 leukemia | HCT-116 colon | OVCAR-5 ovarian | HCC-2998 colon | TK-10 renal | SNB-19 CNS | IGROV1 ovarian | A498 renal | SK-MEL-2 melanoma | OVCAR-8 ovarian | ACHN renal | KM12 colon | UACC-62 melanoma | RXF 393 renal | UO-31 renal | SF-268 CNS | HT29 colon | SR leukemia | CCRF-CEM leukemia | SW-620 colon | M14 melanoma | EKVX NSCLC | UACC-257 melanoma | MOLT-4 leukemia | SK-MEL-5 melanoma | MDA-MB-435 | T-47D breast | HS 578T breast | A549 NSCLC | SNB-75 CNS | BT-549 breast | MDA-MB-231 breast | HOP-62 NSCLC | SK-OV-3 ovarian | SF-295 CNS | U251 CNS
